Like-named read-outs stand apart in the source and are kept apart here.
Columns and labels:
tracheal smooth muscle = test: Tracheaectasy: inhibition of histamin-induced contraction of circular slices of guinea pig trachea in Magnus tube; conditions: contraction by 5.4×10^-4 M histamin, cumulative administration; for IC20: read-out: IC20 (concentration exhibiting the inhibition rate of 20%); for IC50: read-out: IC50 (concentration exhibiting the inhibition rate of 50%)
Description: A male guinea pig weighing about 300 g was beaten to death, and immediately drew the blood by cutting its arteriae femoral as pouring water. A trachea was picked out and cut lengthwise at the opposite side of tracheal smooth muscle and cut into circular slices between cartilages. The obtained seven circular slices of the trachea were tied like as a chain with a thread, and hung into Magnus tube.
After the circular slices of trachea were held for 60-90 minutes until it became stable (disappearence of convulsion), they were administered with 5.4×10^-4 M of histamin to be contracted. After the contraction reached to maximum, each test drug was cumulatively administered so as to inhibit the contraction caused by the histamin.

airway resistance = test: Inhibition of increase of airway resistance due to histamin in anesthetized guinea pig; assay type: in vivo; conditions: intravenous, histamin 3 μg/kg one minute later
Description: A male guinea pig weighing 300-400 g was intraperitoneally anesthetized with urethane 1.5 g/kg. The test animal was cannulated through the trachea, and then bromopanchlonium was intravenously administered at 0.3 mg/kg to make the test animal inactivate. The animal was respired using a vespirater for a small animal. The airway resistance was recorded on a recorder using a bronchospasin transducer. The administration of the test drug was made through a cannula into the jugular vein. The histamin was administered three times of each 3 μg/kg at 30 minutes intervals, and the increase of the airway resistance was determined. After the determination the test drug was intervenously administered, and then 4th administration of histamin was done after one minute. The increase of airway resistance due to histamin before and after the administration of the test drug was determined, from which inhibition rate of the increase due to the test drug was evaluated.

trachea of humans = test: Stimuli of trachea by spraying inhalation in humans; assay type: in vivo, human; conditions: 10 μg/ml solution sprayed at 2 ml/min, ultrasonic inhaler
Description: The strength of stimuli to trachea of humans was evaluated by actual spraying inhalation.
Each test drug was dissolved with a small amount of ethyl alcohol, to which distilled water was added to prepare a solution containing test drug at a concentration of 10 μg/ml. Four panels (K, D, T and O) were sprayed into their throats with the each test solution at a rate of 2 ml/min using an ultrasonic inhaler (NE-U10B available from Omlon K.K.), and the strength of the stimuli was observed.

Row | Compound | IC20 (tracheal smooth muscle; Cavia porcellus) | IC50 (tracheal smooth muscle; Cavia porcellus) | further results
1 | CCCCCCC(=O)CC[C@H]1[C@H](O)CC(=O)[C@@H]1CCCCCCC(=O)O [compound 59] | 1000 nM | 4000 nM | 
2 | COCCCCCC(=O)CC[C@H]1[C@H](O)CC(=O)[C@@H]1C/C=C\CC(C)CC(=O)OC (stereo partly shown) [compound 44] | 10000 nM |  | 
3 | COCCCCCC(=O)CC[C@H]1[C@H](O)CC(=O)[C@@H]1CC#CCCCC(=O)OC [compound 46] | 10000 nM |  | 
4 | COCCCCCC(=O)CC[C@H]1[C@H](O)CC(=O)[C@@H]1C/C=C\CCCC(=O)OC [compound 42] | 10000 nM |  | 
5 | CCCCC(F)C(=O)CC[C@H]1[C@H](CC)CC(=O)[C@@H]1C/C=C\CCCC(=O)OCC (stereo partly shown) [compound 37] | 400 nM | 8000 nM | 
6 | CCCCC(F)(F)C(=O)CC[C@H]1[C@H](O)CC(=O)[C@@H]1C/C=C\CCCC(=O)O [13,14-dihydro-15-keto-16,16-difluoro-PGE2] |  |  | inhibition rate of increase of airway resistance (airway resistance; dose 1 μg/kg): 42%; inhibition rate of increase of airway resistance (airway resistance; dose 3 μg/kg): 100%
7 | CCCCC(C)C(=O)CC[C@H]1[C@H](O)CC(=O)[C@@H]1CCCCCCC(=O)OC (stereo partly shown) [compound 64] | 300 nM | 1000 nM | 
8 | CCCCCCCC(=O)CC[C@H]1[C@H](O)CC(=O)[C@@H]1C/C=C\CCCC(=O)OCC [compound 51] | 1000 nM | 10000 nM | 
9 | CCCCC(C)(C)C(=O)CC[C@H]1[C@H](O)CC(=O)[C@@H]1CC(=O)CCCCC(=O)OCC [compound 11] |  |  | IC20 (tracheal smooth muscle): 800 nM; IC50 (tracheal smooth muscle): 4000 nM
10 | COCCCCC(C)(C)C(=O)CC[C@H]1[C@H](O)CC(=O)[C@@H]1C/C=C\CCCC(=O)OC [compound 45] | 2000 nM | 10000 nM | 
11 | CCCCC(F)C(=O)/C=C/[C@H]1[C@H](O)CC(=O)[C@@H]1C/C=C\CCCC(=O)O (stereo partly shown) [compound 60] | 3000 nM | 7000 nM | 
12 | CCCCCC(=O)/C=C/[C@H]1[C@H](O)CC(=O)[C@@H]1C/C=C\CCCC(=O)O [compound 54] | 8000 nM | 30000 nM | 
13 | CCCCC(C)(C)C(=O)CC[C@H]1[C@H](O)CC(=O)[C@@H]1C/C=C\CCCC(=O)OC [compound 30] |  |  | IC20 (tracheal smooth muscle): 600 nM; IC50 (tracheal smooth muscle): 2000 nM
14 | CCCCCCCC(=O)CC[C@H]1[C@H](C)CC(=O)[C@@H]1C/C=C\CCCC(=O)OC [compound 52] | 1000 nM |  | 
15 | CCCCCC(=O)CCC1C(O)CC(=O)C1CC=CCC(C)CC(=O)OCC (stereo not shown) [compound 26] |  |  | IC20 (tracheal smooth muscle): 1000 nM; IC50 (tracheal smooth muscle): 7000 nM
16 | CCCCCC(F)C(=O)CC[C@H]1[C@H](O)CC(=O)[C@@H]1C/C=C\CCCC(=O)OC (stereo partly shown) [compound 36] | 500 nM | 5000 nM | 
17 | CCCCC(C)C(=O)CC[C@H]1[C@H](O)CC(=O)[C@@H]1C/C=C\CCCC(=O)OC (stereo partly shown) [compound 27] |  |  | IC20 (tracheal smooth muscle): 80 nM; IC50 (tracheal smooth muscle): 400 nM
18 | CCCCC(C)(C)C(=O)CCC1C(O)CC(=O)C1CC=CCCCC(=O)OCC (stereo not shown) [compound 31] |  |  | IC20 (tracheal smooth muscle): 400 nM; IC50 (tracheal smooth muscle): 2000 nM
19 | CCCCC(F)C(=O)/C=C/[C@H]1[C@H](O)CC(=O)[C@@H]1C/C=C\CCCC(=O)OC (stereo partly shown) [compound 55] | 2000 nM | 10000 nM | 
20 | COC(=O)CCC/C=C\C[C@H]1C(=O)C[C@@H](O)[C@@H]1CCC(=O)CCCC(C)C [compound 40] | 2000 nM | 40000 nM | 
21 | CCCCC(C)C(=O)CC[C@H]1[C@H](O)CC(=O)[C@@H]1C/C=C\CC(C)CC(=O)OC (stereo partly shown) [compound 29] |  |  | IC20 (tracheal smooth muscle): 600 nM; IC50 (tracheal smooth muscle): 7000 nM
22 | COC(=O)CCCCC(=O)CC1C(=O)CC(O)C1CCC(=O)CCCC(C)C (stereo not shown) [compound 13] |  |  | IC20 (tracheal smooth muscle): 1000 nM; IC50 (tracheal smooth muscle): 30000 nM
23 | CC(C)=CCCCCC(=O)CC[C@H]1[C@H](O)CC(=O)[C@@H]1C/C=C\CCCC(=O)O [compound 48] | 10000 nM |  | 

Row | Compound | IC20 (tracheal smooth muscle; Cavia porcellus) | IC50 (tracheal smooth muscle; Cavia porcellus) | further results
24 | CCCCCC(=O)CC[C@H]1[C@H](O)CC(=O)[C@@H]1C/C=C\CC(C)CC(=O)OC (stereo partly shown) [compound 25] |  |  | IC20 (tracheal smooth muscle): 40000 nM
25 | CCOC(=O)CCCCC(=O)CC1C(=O)CC(O)C1CCC(=O)CCCC(C)C (stereo not shown) [compound 14] |  |  | IC20 (tracheal smooth muscle): 900 nM; IC50 (tracheal smooth muscle): 30000 nM
26 | CCCCCCC(=O)CC[C@H]1[C@H](O)CC(=O)[C@@H]1CC(=O)CCCCC(=O)OCC [compound 15] |  |  | IC20 (tracheal smooth muscle): 500 nM; IC50 (tracheal smooth muscle): 4000 nM
27 | CCCCCCCCC(=O)CC[C@H]1[C@H](O)CC(=O)[C@@H]1C/C=C\CCCC(=O)OC [compound 53] | 10000 nM |  | 
28 | CCCCC(C)C(=O)CC[C@H]1[C@H](O)CC(=O)[C@@H]1CC(=O)CCCCC(=O)OC (stereo partly shown) [Test drug 9, 13,14-dihydro-6,15-diketo-16R,S-methyl-PGE1 methyl ester] |  |  | strength of stimuli to trachea, panel D (trachea of humans; panel D): -; strength of stimuli to trachea, panel K (trachea of humans; panel K): -; strength of stimuli to trachea, panel O (trachea of humans; panel O): -; strength of stimuli to trachea, panel T (trachea of humans; panel T): -
29 | CCCCC[C@H](O)/C=C/[C@H]1[C@H](O)CC(=O)[C@@H]1CCCCCCC(=O)O [compound 56] | 2 nM | 80 nM | 
30 | CCCCC(C)C(=O)CCC1C(O)CC(=O)C1CC=CCCCC(=O)OCC (stereo not shown) [compound 28] |  |  | IC20 (tracheal smooth muscle): 700 nM; IC50 (tracheal smooth muscle): 7000 nM
31 | CCOC(=O)CCC/C=C\C[C@H]1C(=O)C[C@@H](O)[C@@H]1CCC(=O)CCCC(C)C [compound 41] | 4000 nM |  | 
32 | CCC[C@H](C)CC(=O)CC[C@H]1[C@H](O)CC(=O)[C@@H]1C/C=C\CCCC(=O)OCC [compound 58] | 1000 nM | 30000 nM | 
33 | CCCCC(F)C(=O)CC[C@H]1[C@H](O)CC(=O)[C@@H]1CCCCCCC(=O)O (stereo partly shown) [compound 62] | 4000 nM |  | 
34 | CCOC(=O)CCCCC(=O)C[C@H]1C(=O)C[C@@H](O)[C@@H]1CCC(=O)CCC(C)CC (stereo partly shown) [compound 63] | 10000 nM |  | 
35 | CCC[C@H](C)CC(=O)/C=C/[C@H]1[C@H](O)CC(=O)[C@@H]1C/C=C\CCCC(=O)OCC [compound 61] | 700 nM | 2500 nM | 
36 | CCCCCC(=O)CC[C@H]1[C@H](C)CC(=O)[C@@H]1C/C=C\CCCC(=O)OCC [compound 38] | 600 nM | 7000 nM | 
37 | CCCCC[C@H](O)/C=C/[C@H]1[C@H](O)CC(=O)[C@@H]1C/C=C\CCCC(=O)O [compound 57] | 10 nM | 100 nM | 
38 | CCCCC[C@H](O)/C=C/[C@H]1[C@H](O)CC(=O)[C@@H]1C/C=C\CCCC(=O)O [Test drug 57, (z)-7-{(1R,2R,3R)-3-hydroxy-2-[(E)-(3S)-3-hydroxy-1-octenyl]-5-oxo-cyclopentyl}-hept-5-enoic acid, reference compound] |  |  | inhibition rate of increase of airway resistance (airway resistance; dose 3 μg/kg): 92%
39 | CCCCCCCC(=O)CC[C@H]1[C@H](O)CC(=O)[C@@H]1C/C=C\CCCC(=O)OC [compound 50] | 20000 nM |  | 
40 | COC(=O)CCC/C=C\C[C@H]1C(=O)C[C@@H](O)[C@@H]1CCC(=O)CCCCC=C(C)C [compound 49] | 7000 nM |  | 
41 | COCCCC(=O)CC[C@H]1[C@H](O)CC(=O)[C@@H]1C/C=C\CCCC(=O)OC [compound 47] | 600 nM | 3000 nM | 
42 | CCCCC(C)C(=O)CCC1C(O)CC(=O)C1CC(=O)CCCCC(=O)OC (stereo not shown) [compound 9] |  |  | IC20 (tracheal smooth muscle): 100 nM; IC50 (tracheal smooth muscle): 400 nM
43 | CCC[C@H](C)CC(=O)CC[C@H]1[C@H](O)CC(=O)[C@@H]1C/C=C\CCCC(=O)OC [compound 39] | 3000 nM | 60000 nM | 
44 | CCCCC(F)C(=O)CC[C@H]1[C@H](O)CC(=O)[C@@H]1C/C=C\CCCC(=O)OCC (stereo partly shown) [compound 35] | 900 nM | 20000 nM | 
45 | CCCCC(C)C(=O)CCC1C(O)CC(=O)C1CC(=O)CCCCC(=O)OCC (stereo not shown) [compound 10] |  |  | IC20 (tracheal smooth muscle): 100 nM; IC50 (tracheal smooth muscle): 600 nM

Reference: patent US5362751A, “Tracheobronchodilator using 16-substituted PGEs” (priority 1988, dated 1994)
